The supplement of paper PMC13380429
± gives the standard deviation of the averaged measurements.

What was measured:
Settings in all cases: 72 h
U2OS [1] = test: relative viability EC50 (midpoint between 100% and the lowest measured viability); higher = less toxic
HepG2 [2] = test: as above
Caco-2 [3] = test: as above
U2OS [4] = test: cell viability relative to DMSO; higher = less toxic
HepG2 [5] = test: as above
Caco-2 [6] = test: as above
U2OS [7] = test: drug sensitivity score (DSS) for viability; higher = more toxic; extreme values may be limits of the assay
HepG2 [8] = test: as above
Caco-2 [9] = test: as above
Calu-3 [10] = test: cell viability relative to DMSO; higher = less toxic
Vero E6 [11] = test: as above
Calu-3 [12] = test: drug sensitivity score (DSS) for viability; higher = more toxic; extreme values may be limits of the assay
Vero E6 [13] = test: as above
Calu-3 [14] = test: relative viability EC50 (midpoint between 100% and the lowest measured viability); higher = less toxic

SMILES	relative viability EC50 (U2OS [1])	relative viability EC50 (HepG2 [2])	relative viability EC50 (Caco-2 [3])	cell viability (U2OS [4]; 1 nM)	cell viability (U2OS [4]; 10 nM)	cell viability (U2OS [4]; 100 nM)	cell viability (U2OS [4]; 1000 nM)	cell viability (U2OS [4]; 10000 nM)	cell viability (HepG2 [5]; 1 nM)	cell viability (HepG2 [5]; 10 nM)	cell viability (HepG2 [5]; 100 nM)	cell viability (HepG2 [5]; 1000 nM)	cell viability (HepG2 [5]; 10000 nM)	cell viability (Caco-2 [6]; 1 nM)	cell viability (Caco-2 [6]; 10 nM)	cell viability (Caco-2 [6]; 100 nM)	cell viability (Caco-2 [6]; 1000 nM)	cell viability (Caco-2 [6]; 10000 nM)	drug sensitivity score (U2OS [7])	drug sensitivity score (HepG2 [8])	drug sensitivity score (Caco-2 [9])	cell viability (Calu-3 [10]; 1 nM)	cell viability (Calu-3 [10]; 10 nM)	cell viability (Calu-3 [10]; 100 nM)	cell viability (Calu-3 [10]; 1000 nM)	cell viability (Calu-3 [10]; 10000 nM)	cell viability (Vero E6 [11]; 1 nM)	cell viability (Vero E6 [11]; 10 nM)	cell viability (Vero E6 [11]; 100 nM)	cell viability (Vero E6 [11]; 1000 nM)	cell viability (Vero E6 [11]; 10000 nM)	drug sensitivity score (Calu-3 [12])	drug sensitivity score (Vero E6 [13])	relative viability EC50 (Calu-3 [14])
COc1ccc(Nc2ccn(-c3ccccc3)n2)cc1	> 10 µM	> 10 µM	> 10 µM	95%	100%	94.2%	99.5%	96.2%	102%	97.2%	97.6%	114%	100%	102%	98.5%	90%	97.4%	89.4%	0	0	0													
Cc1cc(Nc2cc(CN3CCOCC3)c3nc(C)c(Cc4ccc(Cl)cc4F)n3n2)n[nH]1	3.11 µM	1.29 µM		104%	105%	104%	99.4%	29.6%	101%	105%	97.5%	75.5%	32.7%	102%	98.2%	105%	96.7%	62.8%	4	6.9	2.3	107%	99.7%	97.1%	91%	50.6%	96.4%	98%	96.8%	95.8%	70.7%	4.1	1.9	
Cc1cc([C@@H](C)Nc2ccccc2C(=O)O)c2nc(N3CCOCC3)cc(=O)n2c1 [AZD6482]	> 10 µM	> 10 µM		100%	101%	96.1%	99.8%	80.8%	103%	102%	99.9%	85.5%	79.7%	93.5%	102%	90%	83.6%	57.5%	0.6	2	3.9	97.7%	105%	94.2%	100%	69%	108%	96.5%	89.3%	79.8%	67.6%	1.3	4.1	
C[C@@H](NC(=O)CCc1nc2ccccc2c(=O)[nH]1)c1ccccc1 [ME0328]				102 ± 1.1%	98 ± 1.3%	103 ± 1.6%	95.8 ± 0.14%	95.8 ± 6.4%	98.65 ± 0.78%	98.8 ± 4.7%	100 ± 4.5%	104 ± 1.3%		97.8 ± 16%	94 ± 1.2%	98.8 ± 2%	103 ± 4.3%	93.7 ± 9.1%	0	0	0	100 ± 5.4%	112 ± 15%	92 ± 3.1%	99.7 ± 8.7%	98.3 ± 3.2%	93.6 ± 7.1%		93.8 ± 6%	94.2 ± 6.1%	94.05 ± 0.071%	0	0	
COc1cc(N2CCC(O)CC2)ccc1Nc1cc(Nc2ccccc2S(=O)(=O)C(C)C)c2cc[nH]c2n1 [Mps1-IN-1]		2.57 µM		103%	101%	101%	98.3%	70.2%	96.5%	118%	95.2%	95.5%	37.8%	102%	92.2%	97.4%	101%	53.9%	1.5	4.1	2.3	101%	114%	90.9%	102%	85.6%	106%	103%	102%	98.9%	74%	0.1	1.2	> 10 µM
COc1ccc(CCc2nc3cc(-c4c(C)noc4C)ccc3n2C[C@H](C)N2CCOCC2)cc1Cl [SGC-CBP30]	> 10 µM		> 10 µM	94.7%	95.5%	102%	98.7%	79.3%	90.4%	105%	93.6%	94.9%	70.4%	93.5%	97.2%	106%	87.9%	76.8%	0.8	2.1	2.2	99.4%	102%	88.3%	90.9%	86.4%	89.8%	97.6%	89.5%	94.5%	53.9%	1.7	3.3	> 10 µM
CC(=O)Nc1ccc(CC(=O)O)cc1 [actarit]	> 10 µM		> 10 µM	98.1%	101%	94.8%	103%	96.4%						96%	94%	93.7%	99.9%	96%	0		0	105%	104%	117%	107%	97.8%						0		> 10 µM
Cc1c(N)nc([C@H](CC(N)=O)NC[C@H](N)C(N)=O)nc1C(=O)N[C@H](C(=O)N[C@H](C)[C@@H](O)[C@H](C)C(=O)N[C@H](C(=O)NCCc1nc(-c2nc(C(=O)NCCC[S+](C)C)cs2)cs1)[C@@H](C)O)[C@@H](OC1OC(CO)C(O)C(O)C1OC1OC(CO)C(O)C(OC(N)=O)C1O)c1cnc[nH]1 (some centres not stated) [bleomycin]			> 10 µM	97%	101%	93.5%	88.4%	55.6%	93.4%	93.7%	95.8%	66.2%	50.8%	98.9%	93.8%	92.3%	89.5%	76.8%	3.8	6.8	1.7	102%	91.8%	94.7%	66.2%	49.8%	97.4%	103%	97.5%	75.5%	60%	6.9	4.8	0.536 µM
CCOP(=S)(OCC)Oc1ccc2c(C)c(Cl)c(=O)oc2c1 [coumophos]																			0	0												0	0	
CC(=O)C1=C(O)[C@@H]2[C@H]3c4c[nH]c5cccc(c45)C[C@H]3C(C)(C)N2C1=O [cyclopiazonic-acid]	> 10 µM		> 10 µM	102%	100%	100%	96.2%	86.1%	110%	105%	103%	97.2%	64.3%	99.9%	106%	107%	106%	81.9%	0.4	2.1	0.3	105%	98.1%	102%	95.7%	98.8%	100%	96.5%	94.3%	95.3%	65.6%	0	2.4	> 10 µM
CCS(=O)(=O)c1ccc2oc(-c3ccc4ccccc4c3)nc2c1 [ezutromid]	> 10 µM	> 10 µM	> 10 µM	101%	97.7%	105%	97.4%	97.2%	99.8%	121%	102%	102%	94.3%	103%	89%	91.4%	91.8%	90.2%	0	0	0.7													
NS(=O)(=O)c1cc2c(cc1Cl)NCNS2(=O)=O [hydrochlorothiazide]																			0													0	0	
CS(=O)(=O)Nc1ccc([N+](=O)[O-])cc1Oc1ccccc1 [nimesulide]																			0	0												0	0	
NC(=O)c1cccc2cn(-c3ccc([C@@H]4CCCNC4)cc3)nc12 [niraparib]	> 10 µM		> 10 µM	101%	95.4%	101%	97.3%	106%	83.9%	109%	99.4%	95.4%	62.9%	92.7%	106%	89.9%	96.4%	88.1%	0	2.5	0	97%	104%	110%	106%	97.6%	102%	102%	102%	95.8%	73%	0	1.7	> 10 µM
Cc1cc2c(cc1CC(=O)c1sccc1S(=O)(=O)Nc1onc(C)c1Cl)OCO2 [sitaxentan]	> 10 µM		> 10 µM	99.6%	99.6%	98.9%	101%	101%						114%	98%	102%	100%	108%	0		0													
CC(=O)OC[C@H]1O[C@@H](n2ccc(=O)[nH]c2=O)[C@H](OC(C)=O)[C@@H]1OC(C)=O [uridine-triacetate]		> 10 µM	> 10 µM						106%	113%	106%	109%	95.4%	101%	110%	114%	97.2%	115%		0	0													
